Assay results: patent US7807877B2, “Genetic sequences having methyltransferase activity and uses therefor” (International Flower Developments Pty. Ltd., priority 2002, dated 2010)
Where “and” joins values, the source holds several entries; their conditions need not be identical. Equal values may be shown once.

How the values were obtained:
[1] = test system: Torenia FMT (TFMT); experiment: Methyltransferase assay (14C-SAM, TLC) of crude homogenate of E. coli containing pCGP3090; assay type: biochemical, Torenia hybrida; design: key to Petunidin (product on TLC) / Malvidin (product on TLC): yes = detection of product on TLC; no = no reaction observed as determined by absence of product
Method: (§1) The assay reactions were incubated at 30° C. for 30 minutes. Fifty microlitres of a chloroform mix (CHCl3:methanol/1% HCl, 2:1) was added and the mixture was then vortexed to stop the reactions. The phases were separated by centrifugation at 13,000 rpm for 5 minutes and 50 μL of the upper phase was transferred into a clean tube and the contents subsequently hydrolysed by the addition of 12.5 μL of 10M HCl. The tube was then placed in a boiling waterbath for 30 minutes and the contents subsequently desiccated under vacuum. The residue was resuspended in 2-3 μL of methanol/1% HCl and spotted onto a TLC plate alongside standard samples of petunidin, malvidin and delphinidin. The anthocyanidins were separated in a Forestal system (HOAc:water:HCl; 30:10:3) (Markham, Techniques of flavonoid identification, Academic Press, London, 1982) and the TLC was exposed to an autoradiographic film (Kodak) for 16 hours at −70° C.
The confirmation of recombinant protein expression and preparation of crude protein extracts and subsequent determination of methyltransferase activity were as described for the analysis of the Petunia E20 cDNA clone (PFMT) (described above in Example 7).
The enzyme activities of the protein encoded by the Torenia FMT cDNA clone in pCGP3090 along with that of the Petunia FMT (E20) clone in pCGP3086 were assessed using the substrates delphinidin 3-glucoside and delphinidin 3-rutinoside under assay conditions as described in Jonsson et al. (1983), supra and in Example 7 of this specification.
Methyltransferase assays were set up according to Table 15 in a total reaction volume of 50 μL.
Reaction conditions were as described previously (Example 7).

[2] = Reconstruction experiments: anthocyanins added to petal juice of Medeo roses; assay type: physicochemical, Rosa hybrida; conditions: pH 4.9
Method: The rose cultivar Medeo generally produces cream-colored to pale apricot flowers (RHSCC 158C to 159A). […] The estimated vacuolar pH of Medeo petals is around 4.6. The petal juice of Medeo roses was extracted by grinding one petal with 50 μL of water using a mortar and pestle. The petal juice was collected and mixed with 10-20 μL of 1-2 mg/g delphinidin 3-glucoside, delphinidin 3,5-diglucoside and malvidin 3,5-diglucoside. The colors observed were described according to the Royal Horticultural Society Color Charts (RHSCC) (The Royal Horticultural Society, London) (Table 8).

[3] = test system: Torenia FMT (TFMT); experiment: HPLC assay of methyltransferase activity, E. coli extract containing pCGP3090; assay type: biochemical, Torenia hybrida
Method: as §1
(§2) Anthocyanidins in the reaction mixture were analysed by HPLC via gradient elution using gradient conditions of 50% B to 60% B over 10 minutes, then 60% B for 10 minutes and finally 60% B to 100% B over 5 minutes where solvent A consisted of TFA:H2O (5:995) and solvent B consisted of acetonitrile:TFA:H2O (500:5:495). An Asahi Pac ODP-50 cartridge column (250 mm×4.6 mm ID) was used for the reversed phase chromatographic separations. […].
(§3) The enzyme activities of the peptides encoded by Petunia and Torenia FMT cDNA clones in pCGP3086 and pCGP3090, respectively were further assessed using the substrates delphinidin 3-glucoside and delphinidin 3-rutinoside and delphinidin 3,5-diglucoside under assay conditions as previously described (Table 15, Example 9) except that the ^14C-labelled SAM was replaced with non radioactive SAM at 2 mg/mL and the substrates (delphinidin 3-glucoside and delphinidin 3-rutinoside and delphinidin 3,5-diglucoside) at 2 mg/mL.

[4] = test system: Petunia FMT (E20); experiment: Methyltransferase assay (14C-SAM, TLC) of crude homogenate of E. coli containing pCGP3086; assay type: biochemical, Petunia hybrida; design: key to Petunidin (product on TLC) / Malvidin (product on TLC): yes = detection of product on TLC; no = no reaction observed as determined by absence of product
Method: 10 mLs of LB containing ampicillin at 100 μg/mL and kanamycin at 25 μg/mL. (LB/Amp100+Kan25) were inoculated with a single colony of pCGP3086 or pQE30 in M15 (pREP4) cells. […] IPTG was then added to a final concentration of 1 mM and the culture was further incubated at 30° C. with shaking for 8 hours. The cells were pelleted by centrifugation at 3500 rpm for 10 minutes at 4° C. The pellet was resuspended in 1 mL of 0.1 M NaPi, pH 7.5, 4 mM MgCl2. […] The mixture was then sonicated for two bursts of 10 seconds at output 2-3 and then incubated on ice for 30 minutes. The cell debris was pelleted by centrifugation at 14,000 rpm for 20 minutes at 4° C. The supernatant was passed through a NAP-10 column (Pharmacia) and 1.5 mL of the sample collected in 0.1 M NaPi, pH 7.5, 4 mM MgCl2. […] (1983), supra. Methyltransferase assays were set up according to Table 10 in a total reaction volume of 50 μL. […] The assay reactions were incubated at 30° C. for 30 minutes. Fifty microlitres of a chloroform mix (CHCl3:methanol/1% HCl, 2:1) was added and the mixture was then vortexed to stop the reactions. […] The tube was then placed in a boiling waterbath for 30 minutes and the contents subsequently desiccated under vacuum.

[5] = test system: Petunia FMT (E20); experiment: HPLC assay of methyltransferase activity, E. coli extract containing pCGP3086; assay type: biochemical, Petunia hybrida
Method: as §1, §2, §3

[6] = pCGP3090 crude homogenate + 14C-SAM (Table 16)
[7] = pCGP3090 (TFMT), percentage of total anthocyanidins, duplicate a/b
[8] = pCGP3090, substrate 2 mg/mL, SAM 2 mg/mL, duplicate a/b
[9] = pCGP3086 crude homogenate + 14C-SAM (Table 16, positive control)
[10] = pCGP3086 crude homogenate + 14C-SAM, 30° C., 30 minutes (Table 11)
[11] = pCGP3086 (PFMT), percentage of total anthocyanidins, duplicate a/b
[12] = pCGP3086, substrate 2 mg/mL, SAM 2 mg/mL, duplicate a/b

COLOR [2]: red-purple
RHSCC# [2]: 74A
Compound: OC[C@H]1O[C@@H](Oc2cc3c(O)cc(O)cc3[o+]c2-c2cc(O)c(O)c(O)c2)[C@H](O)[C@@H](O)[C@@H]1O [D3G, delphinidin 3-glucoside]
Petunidin and malvidin, the methylated derivatives of delphinidin, in assay reactions ([1]; crude homogenates from pCGP3090 (containing TFMT), 14C-SAM): detected
Malvidin (product on TLC) [1, 6]: yes
Petunidin (product on TLC) [1, 6]: yes
product of flavonoid methyltransferase activity with the substrate ([3]; Torenia FMT in pCGP3090, to a lesser degree petunidin): predominantly malvidin
Predominant FMT Activity ([3]; pCGP3090): 3′5′FMT
% of anthocyanidin detected cya [3, 7]: 4.5% and 3.6%
% of anthocyanidin detected del [3, 7]: 7.8%
% of anthocyanidin detected mal [3, 7]: 74.0% and 75.2%
% of anthocyanidin detected peo [3, 7]: 8.5% and 8.0%
% of anthocyanidin detected pet [3, 7]: 5.1% and 5.4%
Anthocyanidins (mg/g) Cya [3, 8]: 1.0 mg/g and 0.9 mg/g
Anthocyanidins (mg/g) Del [3, 8]: 1.8 mg/g and 1.9 mg/g
Anthocyanidins (mg/g) Mal [3, 8]: 17.1 mg/g and 18.1 mg/g
Anthocyanidins (mg/g) Peo [3, 8]: 2.0 mg/g and 1.9 mg/g
Anthocyanidins (mg/g) Pet [3, 8]: 1.2 mg/g and 1.3 mg/g
Petunidin and malvidin, the methylated derivatives of delphinidin, in assay reactions ([4]; crude homogenates from pCGP3086 cells, 14C-SAM): detected
Malvidin (product on TLC) [4, 9]: yes
Petunidin (product on TLC) [4, 9]: yes
Malvidin (product on TLC) [4, 10]: yes
Petunidin (product on TLC) [4, 10]: yes
product of flavonoid methyltransferase activity with the substrate ([5]; Petunia FMT (E20) in pCGP3086, to a lesser degree malvidin): predominantly petunidin
Predominant FMT Activity ([5]; pCGP3086): 3′FMT
% of anthocyanidin detected cya [5, 11]: 11.8% and 9.7%
% of anthocyanidin detected del [5, 11]: 35.5% and 31.4%
% of anthocyanidin detected mal [5, 11]: 6.0% and 6.5%
% of anthocyanidin detected peo [5, 11]: 2.7% and 3.0%
% of anthocyanidin detected pet [5, 11]: 44.0% and 49.4%
Anthocyanidins (mg/g) Cya [5, 12]: 2.4 mg/g and 2.0 mg/g
Anthocyanidins (mg/g) Del [5, 12]: 7.1 mg/g and 6.4 mg/g
Anthocyanidins (mg/g) Mal [5, 12]: 1.2 mg/g and 1.3 mg/g
Anthocyanidins (mg/g) Peo [5, 12]: 0.5 mg/g and 0.6 mg/g
Anthocyanidins (mg/g) Pet [5, 12]: 8.8 mg/g and 10.0 mg/g
